The values that follow come from patent publication US20010021394A1, “Induction of a cellular stress response with heavy metal salts” (priority 1996, published 2001).

The test system of experiment [1] is warm renal ischemia. Description: Warm ischemic injury of the rat kidney (renal vascular resistance). The format is in vivo, Male Sprague-Dawley rats. As to conditions: following 60 minutes of warm ischemic injury, recorded as mm mercury/ml fluid/gram of tissue, control approximately 60, uninjured 43-44. The protocol: Male Sprague-Dawley rats were stress conditioned and subjected to warm ischemic injury using methods similar to those previously described in Perdrizet et al., supra. The non-treated control animals underwent 60 minutes of occlusion of the renal artery at 35-37° C. as an ischemic insult. Following the ischemic injury, flow was reestablished in the kidney and vascular resistance of the kidney was measured. To measure renal vascular resistance, a syringe system was attached to the renal artery, to give a constant flow rate of approximately 0.5 cc/minute. Since there was a constant flow rate, it was possible to measure the pressure generated in the syringe. The higher the pressure, the greater the resistance. Renal vascular resistance was recorded as mm mercury/ml fluid/gram of tissue.

Experiment [2] relates to spinal cord ischemia. Description: Acute spinal cord ischemia in the rabbit (aortic occlusion, neurologic function after reperfusion). The format is in vivo, New Zealand white rabbits. Conditions: 0.15 mg per kilogram subcutaneous, sixteen hours prior to 20 minutes aortic occlusion at 37° C., evaluated 24 hours after reperfusion, four animals. The source says:
New Zealand white rabbits were stress conditioned and subjected to spinal cord ischemia using methods similar to those previously described in Perdrizet et al., “Stress conditioning: A novel approach to organ preservation”, Current Surgery, 46(1): 23-26 (January-February 1989), the contents of which are incorporated herein by reference in their entirety. The rabbits were subjected to spinal cord ischemia by occlusion of the infrarenal-abdominal aorta as an ischemic insult to the spinal cord, for 20 minutes at 37° C. The occlusion was then removed and blood flow re-established to the infra-renal aorta. Neurological function of the lower extremities was evaluated 24 hours after reperfusion. Four animals were pretreated with a subcutaneous injection in the rump region of stannous chloride (SnCl2) in a saline diluent at a dose of 0.15 mg per kilogram (0.00066 millimoles per kilogram), sixteen hours prior to aortic occlusion.

In the case of `[Cl][Sn][Cl]` [SnCl2, stannous chloride], the Renal vascular resistance in experiment [1] is 45 resistance units. Further, in experiment [2], the “Neurological function of the lower extremities” value is reported as “all four animals pretreated with SnCl2 had normal neurologic function”.
